Experimental data taken from publication PMC10605847 (Cancers, 2023).

How the values were obtained:
HeLa cells = assay: MTT cell viability, HeLa; settings: Homo sapiens, 24 h, read-out: IC50 cytotoxic effect, HeLa
Experimental: (§1) For all experiments using cell lines, cells were cultured in a DMEM culture medium with the addition of 10% fetal bovine serum, 2 mM glutamine and 1% penicillin-streptomycin as antibiotics under standard conditions at 37 °C with 5% CO2.
(§2) Cell viability was measured using MTT analysis, as described earlier [48]. In short, 10,000 HeLa and Hek-293 cells per well were placed in sterile 96-well culture plates and cultured under the standard conditions described above for 24 h to adhere. After the time elapsed, the cells were treated with the studied compounds in a concentration range from 0.1 to 100 µM (0.1–1–3–10–30–100) and incubated for 24 h. The control samples contained an equivalent volume of solvent (DMSO < 1%). At the end of incubation, cell viability was measured by adding an MTT solution (the final concentration was 5 mg/mL, DiaM, Moscow, Russia). After 2 h of incubation at 37 °C, the nutrient medium was carefully aspirated and replaced with 200 µL of dimethyl sulfoxide to dissolve the formazane granules. The optical density of the formazane solution was determined using a multifunctional analyzer Cytation™3 (BioTek Instruments, Inc., Winooski, VT, USA) at λ = 530 nm. All experiments were carried out in three repetitions.

[1] = MTT cell viability, Hek-293; settings: human, Hek-293 cells
Experimental: as §1, §2

HDAC1 = target: T1, HDAC1 (Homo sapiens, UniProt Q13547); assay: HDAC1 fluorimetric inhibitory activity assay (Fluor de Lys kit); format: biochemical; settings: read-out: HDAC1-Inhibitory Ability (IC50)
T1 construct: purchased Enzo Life Sciences International, Inc
T1 sequence (Q13547 whole entry): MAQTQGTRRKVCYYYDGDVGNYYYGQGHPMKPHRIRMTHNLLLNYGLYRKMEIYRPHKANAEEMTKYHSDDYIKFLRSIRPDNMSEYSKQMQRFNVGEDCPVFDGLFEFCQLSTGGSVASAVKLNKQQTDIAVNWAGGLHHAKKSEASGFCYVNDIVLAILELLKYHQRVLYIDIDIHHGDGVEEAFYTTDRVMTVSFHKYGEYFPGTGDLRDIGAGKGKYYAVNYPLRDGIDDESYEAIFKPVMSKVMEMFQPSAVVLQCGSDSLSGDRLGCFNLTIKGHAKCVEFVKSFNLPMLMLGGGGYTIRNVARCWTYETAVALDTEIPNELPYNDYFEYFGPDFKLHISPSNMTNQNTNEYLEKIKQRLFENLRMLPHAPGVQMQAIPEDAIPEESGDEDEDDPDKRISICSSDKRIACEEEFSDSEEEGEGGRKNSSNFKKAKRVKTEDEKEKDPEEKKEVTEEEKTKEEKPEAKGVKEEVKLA
Experimental: HDAC1-inhibitory activity was determined using the HDAC activity analysis kit by fluorescence measurement (HDAC1 Fluorimetric Drug Discovery Assay Kit A Fluoro de Lys Fluorescent Assay System, Enzo Life Sciences International, Inc., Farmingdale, New York, USA) in accordance with the manufacturer’s instructions. Fluorescence was measured at an excitation wavelength of 360 nm and emission of 460 nm. […] All experiments were carried out in three repetitions.

in vitro = settings: human
Experimental: as §1, §2

PA-1 cells = assay: Glycolysis stress test (Seahorse XFe96, ECAR); format: cell-based, human; settings: PA-1, 100 µM
Experimental: In order to achieve a 90–95% monolayer, approximately 40,000 PA-1 cells per well were placed in XF96 cell-culture plates and a glycolysis stress test was performed 24 h later using an XFe96 extracellular flow analyzer (Seahorse Bioscience, North Billerica, MA, USA) by measuring the rate of extracellular medium acidification (ECAR).
Briefly, after the cells were seeded, the plate was placed in an incubator and cultured for 24 h under the standard conditions described above.
After placing the tablet in the analyzer, a step-by-step measurement of the extracellular acidification rate of the medium was performed in response to the sequential addition of modulators: port A—the studied compounds at a concentration of 100 µM, port B—10 mM of glucose (Seahorse Bioscience, North Billerica, MA, USA), port C—1 µM of oligomycin (Sigma Aldrich, St. Louis, MI, USA) and port D—25 mM 2-deoxy-D-glucose (Sigma Aldrich, St. Louis, MI, USA). To ensure the stability of each measurement, three separate readings were taken.
Glycolysis was measured by estimating the difference between the maximum ECAR after glucose injection and the last measurement before glucose addition. Such a parameter of glycolytic function as glycolytic capacity was determined by analyzing the difference between the maximum ECAR after oligomycin injection and the last measurement before glucose addition. Glycolytic reserve was defined as the difference between glycolytic capacity and glycolysis.

HeLa cell line = assay: Cisplatin cytotoxicity alone and combined with hydroxamic acids, HeLa (MTT); format: cell-based, human; settings: 5 µM of compound with cisplatin
Experimental: Cell viability was measured using MTT analysis, as described earlier [48]. In short, 10,000 HeLa and Hek-293 cells per well were placed in sterile 96-well culture plates and cultured under the standard conditions described above for 24 h to adhere. After the time elapsed, the cells were treated with the studied compounds in a concentration range from 0.1 to 100 µM (0.1–1–3–10–30–100) and incubated for 24 h. The control samples contained an equivalent volume of solvent (DMSO < 1%). At the end of incubation, cell viability was measured by adding an MTT solution (the final concentration was 5 mg/mL, DiaM, Moscow, Russia). After 2 h of incubation at 37 °C, the nutrient medium was carefully aspirated and replaced with 200 µL of dimethyl sulfoxide to dissolve the formazane granules. The optical density of the formazane solution was determined using a multifunctional analyzer Cytation™3 (BioTek Instruments, Inc., Winooski, VT, USA) at λ = 530 nm. […]
Then, the cells were treated with a combination of increasing doses of cytostatic agents and the test compound with a constant ratio of 1:4, and subsequently, a cell death analysis was performed. The CI values were calculated and plotted using CompuSyn.exe (Biosoft, Ferguson, MO, USA) based on the concentration and effect of each agent and their combinations according to instructions of the software. […]

HeLa/CDDP cells = assay: Cisplatin cytotoxicity alone and combined with hydroxamic acids, cisplatin-resistant HeLa/CDDP (MTT); format: cell-based, human; settings: 5 µM hydroxamic acid
Experimental: Cell viability was measured using MTT analysis, as described earlier [48]. In short, 10,000 HeLa and Hek-293 cells per well were placed in sterile 96-well culture plates and cultured under the standard conditions described above for 24 h to adhere. After the time elapsed, the cells were treated with the studied compounds in a concentration range from 0.1 to 100 µM (0.1–1–3–10–30–100) and incubated for 24 h. The control samples contained an equivalent volume of solvent (DMSO < 1%). At the end of incubation, cell viability was measured by adding an MTT solution (the final concentration was 5 mg/mL, DiaM, Moscow, Russia). […] The optical density of the formazane solution was determined using a multifunctional analyzer Cytation™3 (BioTek Instruments, Inc., Winooski, VT, USA) at λ = 530 nm. All experiments were carried out in three repetitions.

Row | IC50 (HDAC1) | melting point | Compound | IC50 (HeLa cells) | IC50 at 24 h [1] | IC50 at 24 h (in vitro) | inhibition at 100 µM (PA-1 cells; Homo sapiens, vs. control, read-out: inhibition of glycolytic reserve (ECAR)) | glycolytic capacity (maximum ECAR after oligomycin injection) (PA-1 cells; p < 0.0001 vs. control) | reduction of glycolysis (ECAR) (PA-1 cells; vs. control) | decrease in the value of cisplatin IC50 (HeLa cell line) | fold decrease in the IC50 of cisplatin (HeLa/CDDP cells)
1 |  |  | CC(/C=C/C(=O)NO)=C\[C@@H](C)C(=O)c1ccc(N(C)C)cc1 [Trichostatin A, reference compound] | 0.38 ± 0.02 µM | 0.22 ± 0.01 µM |  |  |  |  |  | 
2 | 7.96 ± 0.28 µM |  | CC1(C)C2CC=C(CNC(=O)/C=C/c3ccc(C(=O)NO)cc3)[C@H]1C2 [18b, 4-((E)-3-((((1S)-6,6-Dimethylbicyclo[3.1.1]hept-2-en-2-yl)methyl)amino)-3-oxoprop-1-en-1-yl)-N-hydroxybenzamide] | 43.6 ± 1.02 µM | 38.9 ± 1.24 µM |  |  |  |  |  | 
3 | 4.45 ± 0.3 µM |  | CC1(C)C2CC=C(CCNC(=O)/C=C/c3ccc(C(=O)NO)cc3)[C@@H]1C2 [18c, 4-((E)-3-((2-((1R)-6,6-Dimethylbicyclo[3.1.1]hept-2-en-2-yl)ethyl)amino)-3-oxoprop-1-en-1-yl)-N-hydroxybenzamide] | 33.8 ± 1.19 µM | 34 ± 3.04 µM |  | 86% | significantly lower | 26.6% | 34.50% | approximately 2.02 fold
4 | 5 ± 0.12 µM | 132.5 to 132.6 °C | CC1(C)C2CC=C(CCNC(=O)c3ccc(/C=C/C(=O)NO)cc3)[C@@H]1C2 [21c, N-(2-((1R)-6,6-Dimethylbicyclo [3.1.1]hept-2-en-2-yl)ethyl)-4-((E)-3-(hydroxyamino)-3-oxoprop-1-en-1-yl)benzamide] | 19.1 ± 0.96 µM | 33.9 ± 2.59 µM |  |  |  |  |  | 
5 | 6.9 ± 0.03 µM | 96.5 °C | CC1(C)C2CC=C(CNC(=O)/C=C/c3ccc(C(=O)NO)cc3)[C@@H]1C2 [18a, 4-((E)-3-((((1R)-6,6-Dimethylbicyclo[3.1.1]hept-2-en-2-yl)methyl)amino)-3-oxoprop-1-en-1-yl)-N-hydroxybenzamide] | 29.2 ± 1.06 µM | 46.7 ± 2.93 µM |  |  |  |  |  | 

Row | Compound | IC50 (HDAC1) | melting point | IC50 (HeLa cells) | IC50 at 24 h [1] | IC50 at 24 h (in vitro) | inhibition at 100 µM (PA-1 cells; Homo sapiens, vs. control, read-out: inhibition of glycolytic reserve (ECAR)) | glycolytic capacity (maximum ECAR after oligomycin injection) (PA-1 cells; p < 0.0001 vs. control) | reduction of glycolysis (ECAR) (PA-1 cells; vs. control) | decrease in the value of cisplatin IC50 (HeLa cell line) | fold decrease in the IC50 of cisplatin (HeLa/CDDP cells)
6 | CC1(C)C2CC=C(CNC(=O)c3ccc(/C=C/C(=O)NO)cc3)[C@@H]1C2 [21a, N-(((1R)-6,6-Dimethylbicyclo[3.1.1]hept-2-en-2-yl)methyl)-4-((E)-3-(hydroxyamino)-3-oxoprop-1-en-1-yl)benzamide] | 7.23 ± 0.46 µM | 74.6 °C | 18 ± 0.47 µM |  | 21.2 ± 1.66 µM |  |  |  |  | 
7 | CC1(C)C2CC=C(CNC(=O)c3ccc(/C=C/C(=O)NO)cc3)[C@H]1C2 [21b, N-(((1S)-6,6-Dimethylbicyclo[3.1.1]hept-2-en-2-yl)methyl)-4-((E)-3-(hydroxyamino)-3-oxoprop-1-en-1-yl)benzamide] | 8.2 ± 0.49 µM |  | 42.8 ± 1.28 µM |  | 37.2 ± 1.89 µM |  |  |  |  | 
